Test results from PubChem BioAssay AID2060325 (Molecular Pharmacology Branch, DTP, NCI, 2025).
Several values for one entry are separate records, joined by “and”; a condition that tells them apart may be missing. Equal values may be shown once.

Tested on: SK-OV-3 multi-cell spheroids, viability
Experiment: Anticancer human tumor SK-OV-3 cell line growth inhibition [IpAb];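 as to viability, T/C: viability read after seven days of drug exposure; percent of DMSO vehicle control luminescence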
Settings: for viability, T/C: stronger effect = lower value
Outline: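 Spheroids of 60% malignant cells, 25% HUVEC and 15% MSC were exposed to targeted agents combined with ipatasertib or abemaciclib. Doses started at or near clinical Cmax (10 microM when unknown) and fell in half-log steps.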

[1] = curve of first compound, second compound 0.01 µM
[2] = curve of first compound, second compound 0.0316 µM
[3] = curve of first compound, second compound 0.1 µM
[4] = curve of first compound, second compound 0.316 µM
[5] = curve of first compound, second compound 1 µM
[6] = second compound 0.01 µM, first compound 0.0316 µM
[7] = second compound 0.01 µM, first compound 0.1 µM
[8] = second compound 0.01 µM, first compound 0.316 µM
[9] = second compound 0.01 µM, first compound 1 µM
[10] = second compound 0.01 µM, first compound 3.16 µM
[11] = second compound 0.01 µM, first compound 10 µM
[12] = second compound 0.0316 µM, first compound 0.0316 µM
[13] = second compound 0.0316 µM, first compound 0.1 µM
[14] = second compound 0.0316 µM, first compound 0.316 µM
[15] = second compound 0.0316 µM, first compound 1 µM
[16] = second compound 0.0316 µM, first compound 3.16 µM
[17] = second compound 0.0316 µM, first compound 10 µM
[18] = second compound 0.1 µM, first compound 0.0316 µM
[19] = second compound 0.1 µM, first compound 0.1 µM
[20] = second compound 0.1 µM, first compound 0.316 µM
[21] = second compound 0.1 µM, first compound 1 µM
[22] = second compound 0.1 µM, first compound 3.16 µM
[23] = second compound 0.1 µM, first compound 10 µM
[24] = second compound 0.316 µM, first compound 0.0316 µM
[25] = second compound 0.316 µM, first compound 0.1 µM
[26] = second compound 0.316 µM, first compound 0.316 µM
[27] = second compound 0.316 µM, first compound 1 µM
[28] = second compound 0.316 µM, first compound 3.16 µM
[29] = second compound 0.316 µM, first compound 10 µM
[30] = second compound 1 µM, first compound 0.0316 µM
[31] = second compound 1 µM, first compound 0.1 µM
[32] = second compound 1 µM, first compound 0.316 µM
[33] = second compound 1 µM, first compound 1 µM
[34] = second compound 1 µM, first compound 3.16 µM
[35] = second compound 1 µM, first compound 10 µM
[36] = curve of first compound, second compound 3.16 µM
[37] = curve of first compound, second compound 10 µM
[38] = second compound 3.16 µM, first compound 0.0316 µM
[39] = second compound 3.16 µM, first compound 0.1 µM
[40] = second compound 3.16 µM, first compound 0.316 µM
[41] = second compound 3.16 µM, first compound 1 µM
[42] = second compound 3.16 µM, first compound 3.16 µM
[43] = second compound 3.16 µM, first compound 10 µM
[44] = second compound 10 µM, first compound 0.0316 µM
[45] = second compound 10 µM, first compound 0.1 µM
[46] = second compound 10 µM, first compound 0.316 µM
[47] = second compound 10 µM, first compound 1 µM
[48] = second compound 10 µM, first compound 3.16 µM
[49] = second compound 10 µM, first compound 10 µM

| Structure (SMILES) | IC50 [3] | IC50 [4] | IC50 [5] | viability, T/C [18] | viability, T/C [19] | viability, T/C [20] | viability, T/C [21] | viability, T/C [22] | viability, T/C [23] | viability, T/C [24] | viability, T/C [25] | viability, T/C [26] | viability, T/C [27] | viability, T/C [28] | viability, T/C [29] | viability, T/C [30] | viability, T/C [31] | viability, T/C [32] | viability, T/C [33] | viability, T/C [34] | also measured |
| --- | --- | --- | --- | --- | --- | --- | --- | --- | --- | --- | --- | --- | --- | --- | --- | --- | --- | --- | --- | --- | --- |
| CC1(C)CCC(CN2CCN(c3ccc(C(=O)NS(=O)(=O)c4ccc(NCC5CCOCC5)c([N+](=O)[O-])c4)c(Oc4cnc5[nH]ccc5c4)c3)CC2)=C(c2ccc(Cl)cc2)C1 + CCN1CCN(Cc2ccc(Nc3ncc(F)c(-c4cc(F)c5nc(C)n(C(C)C)c5c4)n3)nc2)CC1 | 722 nM | 316 nM | < 31.6 nM | 60.7% | 59.2% | 55.2% | 48% | 34.4% | 14.3% | 55.8% | 53.5% | 52.7% | 39.9% | 31.5% | 10.4% | 44.5% | 47.3% | 42.3% | 38.3% | 31.9% | IC50 [1]: 2540 nM; IC50 [2]: 2450 nM; viability, T/C [6]: 92.7%; viability, T/C [7]: 96.9%; viability, T/C [8]: 90%; viability, T/C [9]: 71.8%; viability, T/C [10]: 45.3%; viability, T/C [11]: 18.2%; viability, T/C [12]: 78.7%; viability, T/C [13]: 74.3%; viability, T/C [14]: 79.6%; viability, T/C [15]: 68.5%; viability, T/C [16]: 44.7%; viability, T/C [17]: 17.9%; viability, T/C [35]: 12.9% |
| Cc1nc(NC(=O)N2CCCC2C(N)=O)sc1-c1ccnc(C(C)(C)C(F)(F)F)c1 (configuration not stated) + CCN1CCN(Cc2ccc(Nc3ncc(F)c(-c4cc(F)c5nc(C)n(C(C)C)c5c4)n3)nc2)CC1 | 33.4 nM | < 31.6 nM | < 31.6 nM | 50.1% | 40.5% | 23.9% | 15.6% | 9.26% | 4.48% | 43.2% | 37.1% | 28.4% | 15.7% | 7.93% | 5.24% | 39.5% | 34.7% | 23.9% | 15.9% | 9.43% | IC50 [1]: 239 nM; IC50 [2]: 111 nM; viability, T/C [6]: 82.9%; viability, T/C [7]: 70%; viability, T/C [8]: 43.1%; viability, T/C [9]: 20.7%; viability, T/C [10]: 9.47%; viability, T/C [11]: 5.17%; viability, T/C [12]: 66.5%; viability, T/C [13]: 52.3%; viability, T/C [14]: 31.7%; viability, T/C [15]: 17.5%; viability, T/C [16]: 8.57%; viability, T/C [17]: 4.47%; viability, T/C [35]: 4.78% |
| CCCS(=O)(=O)Nc1ccc(F)c(C(=O)c2c[nH]c3ncc(-c4ccc(Cl)cc4)cc23)c1F + CC(C)NCC(C(=O)N1CCN(c2ncnc3c2C(C)CC3O)CC1)c1ccc(Cl)cc1 | 4770 nM | < 31.6 nM | < 31.6 nM | 70.2% | 74.1% | 67.5% | 73.9% | 64.3% | 23.3% | 38.8% | 36.5% | 38.1% | 36.1% | 28.2% | 13.9% | 20.5% | 22.4% | 21.3% | 17.9% | 15.3% | IC50 [36]: < 31.6 nM; IC50 [37]: < 31.6 nM; viability, T/C [35]: 6.91%; viability, T/C [38]: 17.1%; viability, T/C [39]: 18.6%; viability, T/C [40]: 15.7%; viability, T/C [41]: 15.7%; viability, T/C [42]: 15.1%; viability, T/C [43]: 6.79%; viability, T/C [44]: 8.73%; viability, T/C [45]: 9.5%; viability, T/C [46]: 9.69%; viability, T/C [47]: 8.84%; viability, T/C [48]: 9.71%; viability, T/C [49]: 2.52% |
| C=CC(=O)N1CCN(c2nc(=O)n(-c3c(C)ccnc3C(C)C)c3nc(-c4c(O)cccc4F)c(F)cc23)C(C)C1 (configuration not stated) |  |  |  |  |  |  |  |  |  |  |  |  |  |  |  |  |  |  |  |  | viability, T/C (compound 0.0316 µM): 100% and 104%; viability, T/C (compound 0.1 µM): 107% and 105%; viability, T/C (compound 0.316 µM): 111% and 117%; viability, T/C (compound 1 µM): 115% and 130%; viability, T/C (compound 3.16 µM): 125% and 120%; viability, T/C (compound 10 µM): 77.3% and 82.5%; IC50 (curve of compound): > 10000 nM |
| C=CCn1c(=O)c2cnc(Nc3ccc(N4CCN(C)CC4)cc3)nc2n1-c1cccc(C(C)(C)O)n1 + CC(C)NCC(C(=O)N1CCN(c2ncnc3c2C(C)CC3O)CC1)c1ccc(Cl)cc1 | 59.1 nM | < 31.6 nM | < 31.6 nM | 66.1% | 36.5% | 10% | 7.27% | 4.83% | 6.07% | 37.5% | 24.6% | 6.94% | 7.44% | 6.92% | 6.99% | 19.2% | 13.9% | 4.18% | 6.74% | 7.21% | IC50 [36]: < 31.6 nM; IC50 [37]: < 31.6 nM; viability, T/C [35]: 6.84%; viability, T/C [38]: 13.8%; viability, T/C [39]: 8.92%; viability, T/C [40]: 2.61%; viability, T/C [41]: 3.21%; viability, T/C [42]: 8.27%; viability, T/C [43]: 5.57%; viability, T/C [44]: 8.99%; viability, T/C [45]: 4.85%; viability, T/C [46]: 1.17%; viability, T/C [47]: 2.53%; viability, T/C [48]: 4.96%; viability, T/C [49]: 3.52% |
| Cn1nccc1Nc1nccc(-c2ccn(C(CO)c3ccc(Cl)c(F)c3)c(=O)c2)n1 (configuration not stated) + CCN1CCN(Cc2ccc(Nc3ncc(F)c(-c4cc(F)c5nc(C)n(C(C)C)c5c4)n3)nc2)CC1 | 9030 nM | 4250 nM | < 31.6 nM | 56.2% | 55.9% | 63.2% | 69.6% | 60.3% | 34.3% | 52.1% | 55.9% | 61.1% | 58.8% | 54.4% | 36% | 40.8% | 48.9% | 52.2% | 60% | 57% | IC50 [1]: 7380 nM; IC50 [2]: 6800 nM; viability, T/C [6]: 84%; viability, T/C [7]: 98.2%; viability, T/C [8]: 105%; viability, T/C [9]: 118%; viability, T/C [10]: 91.6%; viability, T/C [11]: 35.1%; viability, T/C [12]: 71.3%; viability, T/C [13]: 80.8%; viability, T/C [14]: 84.4%; viability, T/C [15]: 102%; viability, T/C [16]: 74%; viability, T/C [17]: 38%; viability, T/C [35]: 40.2% |
